Data reported in patent US20250171417A1, “HETEROCYCLIC DERIVATIVE, AND COMPOSITION AND PHARMACEUTICAL USE THEREOF” (Xizang Haisco Pharmaceutical Co., Ltd., priority 2021, published 2025).
Where two headings read alike, the source gives them in different places.

Legend:
[1] = system: Prostate cancer cells 22RV1; assay: Experiment on inhibiting 22RV1 cell proliferation (CellTiter-Glo, 7 days); format: cell-based; details: Homo sapiens, 168 h, 22RV1 cells, 7 days incubation, read-out: IC50 values for inhibition of 22RVI cells
Outline: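 22RV1 cells at 2000/well in 1% charcoal-stripped-FBS phenol red-free medium, treated next day with compound for 7 days at 37 °C, 5% CO2. Viability by CellTiter-Glo luminescence; inhibition relative to DMSO vehicle, IC50 from dose-response fit.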

[2] = Pharmacokinetic test in rats; format: in vivo; details: rat, plasma, po, male SD rats; for bioavailability: i.g. 5 mg/kg vs intravenous 2 mg/kg; for AUC(0-t): i.g. 5 mg/kg
Experimental: Test objective: In this experiment, a single dose of each test compound was administered to SD rats intravenously and intragastrically, and the concentrations of the test compounds in plasma of rats were measured to evaluate the pharmacokinetic characteristics of the test compounds in rats.
Experimental animals: male SD rats, 200-250 g, 6-8 weeks old, 6 rats/compound, purchased from Chengdu Ddossy Experimental Animals Co., Ltd.
Experimental method: on the day of the test, 6 SD rats were randomly grouped according to their body weight; the animals were fasted with water available for 12 to 14 hours one day before the administration of a test compound, and were fed 4 hours after the administration.
Sampling: Before and after the administration, 0.1 mL of blood samples were drawn from the orbits of the animals under isoflurane anesthesia, and placed in an EDTAK2 centrifuge tube. Centrifugation was carried out at 5000 rpm at 4° C. for 10 min, and the plasma was collected.
Time points for plasma collection in IV&PO group: 0, 5 min, 15 min, 30 min, 1 h, 2 h, 4 h, 6 h, 8 h, and 24 h.
Before analysis and detection, all samples were stored at −60° C. The samples were analyzed quantitatively by LC-MS/MS.

[3] = molecular target: T1, AR splice variant 7 (AR-V7) (Homo sapiens, UniProt P10275); assay: Degradation experiment on AR splice variant 7 (AR-V7) in 22RV1 cells; format: cell-based; details: 24 h
T1 construct: host or cells: 22RV1 prostate cancer cells
T1 sequence (P10275 1-644 isoform P10275-3): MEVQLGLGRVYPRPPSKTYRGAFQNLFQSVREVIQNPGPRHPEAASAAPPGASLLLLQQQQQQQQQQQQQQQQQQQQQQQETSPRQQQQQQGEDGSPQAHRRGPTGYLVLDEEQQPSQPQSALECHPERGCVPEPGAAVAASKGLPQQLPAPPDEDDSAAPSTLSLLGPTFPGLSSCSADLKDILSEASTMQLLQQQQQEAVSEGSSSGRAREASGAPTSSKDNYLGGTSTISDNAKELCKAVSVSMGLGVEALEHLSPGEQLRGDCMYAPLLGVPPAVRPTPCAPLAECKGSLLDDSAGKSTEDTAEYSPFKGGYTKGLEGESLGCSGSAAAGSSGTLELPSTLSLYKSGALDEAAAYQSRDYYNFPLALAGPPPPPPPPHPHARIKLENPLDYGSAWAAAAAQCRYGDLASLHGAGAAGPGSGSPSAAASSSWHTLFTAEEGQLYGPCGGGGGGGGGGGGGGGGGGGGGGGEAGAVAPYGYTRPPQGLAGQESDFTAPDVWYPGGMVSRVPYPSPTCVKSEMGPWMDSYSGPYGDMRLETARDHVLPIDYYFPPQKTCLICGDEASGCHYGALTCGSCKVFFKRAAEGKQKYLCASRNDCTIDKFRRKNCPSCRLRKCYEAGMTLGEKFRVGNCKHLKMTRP
Experimental: Prostate cancer cells 22RV1 were purchased from ATCC, the cell medium was 1640+10% FBS, and the cells were cultured in an incubator at 37° C. under 5% CO2. On day 1, the cells in an exponential phase were collected. With a 1% css-FBS phenol red-free medium, the cell suspension was adjusted to a corresponding concentration and plated into a 6-well plate at 1 mL/well and 300000 cells/well. The next day, a 1% css-FBS phenol-free medium containing the compound to be tested was added, a 1% css-FBS phenol-free medium containing 0.2% DMSO was added to one well as DMSO vehicle control, and the 6-well plate was cultured in an incubator at 37° C. under 5% CO2. After 24 h, the cells were digested with pancreatin and collected into a 1.5 mL centrifuge tube. 15 μL of RIPA lysate (containing 1× protease inhibitor cocktail) was added to each well, and the cells were lysed on ice for 15 min and then centrifuged at 12000 g at 4° C.′ for 10 min. The supernatant protein samples were collected, and protein quantification was performed by a BCA method. AR-V7 was detected using fully automatic protein expression quantitative analysis, which involved diluting the protein to be tested to 2 mg/mL, 4 μL of the diluted protein samples were added to 1 μL of 5× Master Mix (provided in the kit), and the prepared samples were denatured at 95° C. for 5 min and placed on ice for use. The primary antibodies. AR V7 (CST, 19672S) and β-actin (CST, 3700), were diluted with Antibody Diluent II (provided in the kit) at a dilution ratio of 1:10 and 1:500, respectively. The secondary antibody was a mixed goat anti-mouse and goat anti-rabbit secondary antibody in a ratio of 1:1, and the color development solution was a mixed solution of Lumino-S and Peroxide in a ratio of 1:1. The prepared reagents were successively added to an assay plate according to instructions of the kit and detected on an instrument. Western blot band processing was performed using “Compass for SW”, a fully automatic protein expression quantitative analysis software, in which western blot bands were automatically simulated based on signal values. The degradation rate of AR-V7 (4) relative to vehicle control at different compound concentrations was calculated according to formula (4), wherein AR-V7compound was the relative peak area of AR-V7 in the treated group, and AR-V7solvent was the relative peak area of AR-V7 in the vehicle control group.
DC50 calculation: the compound concentration DC50 values at which the degradation rate of AR-V7 was 50% were calculated using Graphpad software and analyzed using log (inhibitor) vs. response-Variable slope (four parameters) function according to formula (4).

[4] = cells without a unit of their own (μM)
[5] = cells with nM printed beside the value

Row | SMILES | IC50 [1, 4] [µM] | bioavailability [2] [%] | AUC(0-t) [2] [ng·h/mL] | IC50 [1, 5] [µM] | DC50 [3] [nM]
1 | CC(C)(C(=O)Nc1ccc(C#N)c(C(F)(F)F)c1)n1cc(C#CC2CN(c3ccc4c(c3)CN(C3CCC(=O)NC3=O)C4=O)C2)cn1 (centres unmarked) [Compound 6] | < 1 | 47.3 ± 16 | 8960 ± 2940 | – | –
2 | CC(C)(C(=O)Nc1ccc(C#N)c(Cl)c1)n1cc(C#CC2CN(c3ccc4c(c3)C(=O)N(C3CCC(=O)NC3=O)C4=O)C2)cn1 (centres unmarked) [Compound 12, N-(3-chloro-4-cyanophenyl)-2-(4-((1-(2-(2,6-dioxopiperidin-3-yl)-1,3-dioxoisoindolin-5-yl)azetidin-3-yl)ethynyl)-1H-pyrazol-1-yl)-2-methylpropanamide] | – | 73 ± 7.2 | 70500 ± 6980 | < 0.05 | –
3 | Cc1cc(NC(=O)C(C)(C)n2cc(C#CC3CN(c4ccc5c(c4)C(=O)N(C4CCC(=O)NC4=O)C5=O)C3)cn2)ccc1C#N (centres unmarked) [Compound 13, N-(4-cyano-3-methylphenyl)-2-(4-((1-(2-(2,6-dioxopiperidin-3-yl)-1,3-dioxoisoindolin-5-yl)azetidin-3-yl)ethynyl)-1H-pyrazol-1-yl)-2-methylpropanamide] | < 1 | 77.8 ± 8.5 | 57800 ± 6300 | – | –
4 | O=C1CCC(N2C(=O)c3ccc(N4CC(C#Cc5cnn(C6(C(=O)Nc7ccc(C(F)(F)F)cc7Cl)CCC6)c5)C4)cc3C2=O)C(=O)N1 (centres unmarked) [Compound 14, N-(2-chloro-4-(trifluoromethyl)phenyl)-1-(4-((1-(2-(2,6-dioxopiperidin-3-yl)-1,3-dioxoisoindolin-5-yl)azetidin-3-yl)ethynyl)-1H-pyrazol-1-yl)cyclobutane-1-carboxamide] | – | – | – | < 0.05 | < 500
5 | CC(C)(C(=O)Nc1ccc(C#N)cc1Cl)n1cc(C#CC2CN(c3ccc4c(c3)C(=O)N(C3CCC(=O)NC3=O)C4=O)C2)cn1 (centres unmarked) [Compound 20, N-(2-chloro-4-cyanophenyl)-2-(4-((1-(2-(2,6-dioxopiperidin-3-yl)-1,3-dioxoisoindolin-5-yl)azetidin-3-yl)ethynyl)-1H-pyrazol-1-yl)-2-methylpropanamide] | – | 62 ± 23 | 16000 ± 5820 | < 0.05 | –
6 | CC(C)(C(=O)Nc1ccc(C(F)(F)F)cc1Br)n1cc(C#CC2CN(c3ccc4c(c3)C(=O)N(C3CCC(=O)NC3=O)C4=O)C2)cn1 (centres unmarked) [Compound 28, N-(2-bromo-4-(trifluoromethyl)phenyl)-2-(4-((1-(2-(2,6-dioxopiperidin-3-yl)-1,3-dioxoisoindolin-5-yl)azetidin-3-yl)ethynyl)-1H-pyrazol-1-yl)-2-methylpropanamide] | – | – | – | < 0.05 | < 500
7 | CC(C)(C(=O)Nc1ccc(C(F)(F)F)cc1F)n1cc(C#CC2CN(c3ccc4c(c3)C(=O)N(C3CCC(=O)NC3=O)C4=O)C2)cn1 (centres unmarked) [Compound 31, N-(2-fluoro-4-(trifluoromethyl)phenyl)-2-(4-((1-(2-(2,6-dioxopiperidin-3-yl)-1,3-dioxoisoindolin-5-yl)azetidin-3-yl)ethynyl)-1H-pyrazol-1-yl)-2-methylpropanamide] | – | – | 39700 ± 1890 | < 0.1 | –
8 | O=C1CCC(N2C(=O)c3cc(F)c(N4CC(C#Cc5cnn(C6(C(=O)Nc7ccc(C(F)(F)F)cc7Cl)CCC6)c5)C4)cc3C2=O)C(=O)N1 (centres unmarked) [Compound 33] | < 1 | 55.3 ± 5.4 | 9390 ± 916 | – | –
9 | CC(C)(C(=O)Nc1ccc(C#N)c(Br)c1)n1cc(C#CC2CN(c3ccc4c(c3)C(=O)N(C3CCC(=O)NC3=O)C4=O)C2)cn1 (centres unmarked) [Compound 37, N-(3-bromo-4-cyanophenyl)-2-(4-((1-(2-(2,6-dioxopiperidin-3-yl)-1,3-dioxoisoindolin-5-yl)azetidin-3-yl)ethynyl)-1H-pyrazol-1-yl)-2-methylpropanamide] | – | 69.8 ± 28 | 55800 ± 22600 | < 0.05 | –
10 | CC(C)(C(=O)Nc1ccc(C#N)c(N2CCCC2)c1)n1cc(C#CC2CN(c3ccc4c(c3)C(=O)N(C3CCC(=O)NC3=O)C4=O)C2)cn1 (centres unmarked) [Compound 38, N-(4-cyano-3-(pyrrolidin-1-yl)phenyl)-2-(4-((1-(2-(2,6-dioxopiperidin-3-yl)-1,3-dioxoisoindolin-5-yl)azetidin-3-yl)ethynyl)-1H-pyrazol-1-yl)-2-methylpropanamide] | – | 43.5 ± 7.3 | 7200 ± 1210 | < 0.05 | –
11 | CC(C)(C(=O)Nc1ccc(C#N)cc1C1CC1)n1cc(C#CC2CN(c3ccc4c(c3)C(=O)N(C3CCC(=O)NC3=O)C4=O)C2)cn1 (centres unmarked) [Compound 39, N-(4-cyano-2-cyclopropylphenyl)-2-(4-((1-(2-(2,6-dioxopiperidin-3-yl)-1,3-dioxoisoindolin-5-yl)azetidin-3-yl)ethynyl)-1H-pyrazol-1-yl)-2-methylpropanamide] | – | – | – | < 0.05 | < 500
12 | N#Cc1ccc(NC(=O)Cn2cc(C#CC3CN(c4ccc5c(c4)C(=O)N(C4CCC(=O)NC4=O)C5=O)C3)cn2)cc1C(F)(F)F (centres unmarked) [Compound 47, N-(4-cyano-3-(trifluoromethyl)phenyl)-2-(4-((1-(2-(2,6-dioxopiperidin-3-yl)-1,3-dioxoisoindolin-S-yl)azetidin-3-yl)ethynyl)-1H-pyrazol-1-yl) acetamide] | – | 37.7 ± 13 | 11300 ± 3880 | < 0.05 | –
13 | CC(C)(C(=O)Nc1ccc(C(F)(F)F)cc1-n1cccc1)n1cc(C#CC2CN(c3ccc4c(c3)C(=O)N(C3CCC(=O)NC3=O)C4=O)C2)cn1 (centres unmarked) [Compound 133, N-(2-(1H-pyrrol-1-yl)-4-(trifluoromethyl)phenyl)-2-(4-((1-(2-(2,6-dioxopiperidin-3-yl)-1,3-dioxoisoindolin-5-yl)azetidin-3-yl)ethynyl)-1H-pyrazol-1-yl)-2-methylpropanamide] | – | 70.3 ± 7.9 | 8290 ± 935 | < 0.1 | –
14 | CC(C)(C(=O)Nc1ccc(C#N)c2c1CCC2)n1cc(C#CC2CN(c3ccc4c(c3)C(=O)N(C3CCC(=O)NC3=O)C4=O)C2)cn1 (centres unmarked) [Compound 141, N-(7-cyano-2,3-dihydro-1H-inden-4-yl)-2-(4-((1-(2-(2,6-dioxopiperidin-3-yl)-1,3-dioxoisoindolin-5-yl)azetidin-3-yl)ethynyl)-1H-pyrazol-1-yl)-2-methylpropanamide] | – | 76.1 ± 716 | 15700 ± 3200 | < 0.05 | –
